In assay [1] the target is T1, Discoidin domain-containing receptor 2 (Homo sapiens, UniProt Q16832).
T1 sequence (Q16832 whole entry): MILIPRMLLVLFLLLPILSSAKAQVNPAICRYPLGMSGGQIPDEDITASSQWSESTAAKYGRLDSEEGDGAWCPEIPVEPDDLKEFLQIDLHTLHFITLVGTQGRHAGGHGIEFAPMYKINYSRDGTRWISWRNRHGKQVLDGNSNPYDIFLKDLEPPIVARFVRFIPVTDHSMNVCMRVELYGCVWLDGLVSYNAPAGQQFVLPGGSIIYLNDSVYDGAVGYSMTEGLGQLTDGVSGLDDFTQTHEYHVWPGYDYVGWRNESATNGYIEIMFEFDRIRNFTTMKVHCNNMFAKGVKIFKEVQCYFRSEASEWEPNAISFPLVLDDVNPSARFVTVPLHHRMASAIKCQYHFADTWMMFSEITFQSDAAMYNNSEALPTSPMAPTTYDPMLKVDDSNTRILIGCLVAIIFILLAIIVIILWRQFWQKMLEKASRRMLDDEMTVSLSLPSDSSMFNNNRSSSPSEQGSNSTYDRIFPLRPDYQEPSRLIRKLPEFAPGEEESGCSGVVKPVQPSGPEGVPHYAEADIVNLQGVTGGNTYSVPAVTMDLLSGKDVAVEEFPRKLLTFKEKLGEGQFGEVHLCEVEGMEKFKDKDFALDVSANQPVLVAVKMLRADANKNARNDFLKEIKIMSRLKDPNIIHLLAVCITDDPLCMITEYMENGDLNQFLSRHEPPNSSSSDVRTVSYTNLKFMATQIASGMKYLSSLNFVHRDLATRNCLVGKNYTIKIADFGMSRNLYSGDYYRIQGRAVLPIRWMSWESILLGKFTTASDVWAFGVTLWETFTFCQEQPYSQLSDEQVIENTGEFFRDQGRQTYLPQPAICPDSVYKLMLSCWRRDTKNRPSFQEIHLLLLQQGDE
Put plainly: DDR1 and DDR2 Biochemical Assay. On the procedure: (§1) The capacity of compounds to bind to DDR1 and DDR2 was quantified using a LanthaScreen Eu Kinase Binding Assay. Recombinant human DDR1 (2.5 nM; aa440-876 containing a GST tag) and DDR2 (1.75 nM; aa427-855 containing a GST tag) were diluted in assay buffer (50 mM HEPES pH7.3, 10 mM MgCl2, 1 mM EGTA and 0.01% Tween) with various concentrations of compound in a 384-well plate and a volume of 5 uL. After a 30-minute incubation at room temperature, 2.5 uL of Eu-anti GST antibody (diluted to 1 nM in assay buffer) plus Kinase Tracer 178 (diluted in assay buffer to 5 nM for DDR1 and 10 nM for DDR2) were added to the plate. Following 60-minute incubation at room temperature, time-resolved fluorescence was measured on a BMG Labtech PHERAstar plate reader. DMSO (1%) and reference compound (1 μM) were used to generate the Max and Min assay signals, respectively. Data was analysed using a four-parameter logistic model to calculate IC50 values, with at least two independent replicates were performed for each compound.

Assay [2] addresses Epithelial discoidin domain-containing receptor 1 (Homo sapiens, UniProt Q08345). Put plainly: DDR1 and DDR2 Biochemical Assay. On the procedure: as §1

Some results are limits rather than exact numbers.

Epithelial discoidin domain-containing receptor 1, sequence (Q08345 whole entry, the tested form may be a part): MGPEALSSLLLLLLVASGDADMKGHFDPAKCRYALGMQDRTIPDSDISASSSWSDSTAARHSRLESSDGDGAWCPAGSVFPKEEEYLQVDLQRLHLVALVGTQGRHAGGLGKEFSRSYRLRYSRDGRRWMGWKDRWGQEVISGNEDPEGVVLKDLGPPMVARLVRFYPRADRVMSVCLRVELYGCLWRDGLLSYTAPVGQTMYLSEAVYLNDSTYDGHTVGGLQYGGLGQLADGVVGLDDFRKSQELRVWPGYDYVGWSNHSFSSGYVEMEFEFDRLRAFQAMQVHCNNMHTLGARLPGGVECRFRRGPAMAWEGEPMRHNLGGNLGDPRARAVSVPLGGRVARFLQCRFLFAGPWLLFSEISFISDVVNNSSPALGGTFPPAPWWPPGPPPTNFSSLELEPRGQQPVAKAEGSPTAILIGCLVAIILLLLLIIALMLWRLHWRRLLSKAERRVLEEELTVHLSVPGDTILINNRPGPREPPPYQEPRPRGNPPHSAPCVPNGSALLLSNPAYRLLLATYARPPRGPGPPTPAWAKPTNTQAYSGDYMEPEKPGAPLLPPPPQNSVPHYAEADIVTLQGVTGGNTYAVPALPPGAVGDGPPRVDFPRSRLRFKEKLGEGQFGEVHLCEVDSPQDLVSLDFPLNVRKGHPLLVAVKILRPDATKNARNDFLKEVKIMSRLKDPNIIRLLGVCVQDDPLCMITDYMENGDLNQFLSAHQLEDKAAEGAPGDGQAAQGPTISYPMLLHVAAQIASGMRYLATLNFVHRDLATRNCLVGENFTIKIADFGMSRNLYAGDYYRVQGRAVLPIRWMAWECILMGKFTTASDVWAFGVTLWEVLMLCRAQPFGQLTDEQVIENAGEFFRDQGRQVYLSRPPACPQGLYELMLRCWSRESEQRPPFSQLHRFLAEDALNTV

`Cc1n[nH]c2cc(Nc3cccc4c3C(=O)N(CC(=O)NCC(F)(F)F)C4)ccc12` [US20260069571, Example 6]: the IC50 in assay [1] and in assay [2] was below 0.01 µM in each case.

On to `Cn1ncc2cc(Nc3cccc4c3C(=O)N(CC(=O)N3CCCC(C(F)(F)F)C3)C4)ccc21` (stereo not drawn) [US20260069571, Example 12], for which the half-maximal inhibitory concentration (IC50) (commonly the concentration that inhibits the measured activity by half) in assay [2] is below 0.01 µM.

The values are drawn from BindingDB's records for patent US20260069571 (Redx Pharma, 2026).
